Reference: patent US10815230B2, “Casein kinase 1 delta inhibitor” (ELECTROPHORETICS LIMITED, priority 2015, dated 2020)

How the values were obtained:
[1] = target: ANKK1 (Homo sapiens, UniProt Q8NFD2); assay: KINOMEscan binding assay; settings: read-out: % Ctrl @ 10000 nM
[2] = target: MLK3 (Homo sapiens, UniProt Q16584); assay: KINOMEscan binding assay; settings: read-out: % Ctrl @ 10000 nM
[3] = target: RSK4 Kin.Dom.1-N-terminal (Homo sapiens, UniProt Q9UK32); assay: KINOMEscan binding assay; settings: read-out: % Ctrl @ 10000 nM
[4] = target: CDK2 (Homo sapiens, UniProt P24941); assay: KINOMEscan binding assay; settings: read-out: % Ctrl @ 10000 nM
[5] = target: LATS2 (Homo sapiens, UniProt Q9NRM7); assay: KINOMEscan binding assay; settings: read-out: % Ctrl @ 10000 nM
[6] = target: RSK1 Kin.Dom.2-C-terminal (Homo sapiens, UniProt Q15418); assay: KINOMEscan binding assay; settings: read-out: % Ctrl @ 10000 nM
[7] = tested on: HepG2 cells; assay: in vitro; settings: human, 72 h
Method: (§1) The cytotoxicity screening panel was performed by Cyprotex® according to their established protocols. HepG2 cells were plated on 96-well tissue culture treated black walled clear bottomed polystyrene plates, 100 μL per well. The cells were dosed with compound A and comparative compound 324 (WO2012080727; 5-(1,3-benzoxazol-2-yl)-4-(pyridine-4-yl)pyrimidin-2-amine) amine) at […], 0.1 μM, 0.4 μM, 1.0 μM, 4.0 μM, 10 μM, 40 μM and 100 μM. At the end of the incubation period (72 h), the cells were loaded with the relevant dye/antibody for each cell health marker. The plates were then scanned using an automated fluorescent cellular imager, ArrayScan® VTI (Thermo Scientific Cellomics).
(§2) Cytotoxicity was assessed using a multiparametric approach using High Content Screening (HCS) O'Brien P and Haskins J R (2007) High Content Screening: A Powerful Approach to Systems Cell Biology and Drug Discovery Ed. Taylor et al.; 415-425). […] This assay scores compounds across direct and indirect measure of toxicity.

[8] = in vitro; settings: human
Method: as §1, §2

[9] = target: PIK3CA (H1047Y) (Homo sapiens, UniProt P42336, H1047Y); assay: KINOMEscan binding assay; settings: read-out: % Ctrl @ 10000 nM
[10] = target: MRCKB (Homo sapiens, UniProt Q9Y5S2); assay: KINOMEscan binding assay; settings: read-out: % Ctrl @ 10000 nM
Sequence of MRCKB (Q9Y5S2 whole entry): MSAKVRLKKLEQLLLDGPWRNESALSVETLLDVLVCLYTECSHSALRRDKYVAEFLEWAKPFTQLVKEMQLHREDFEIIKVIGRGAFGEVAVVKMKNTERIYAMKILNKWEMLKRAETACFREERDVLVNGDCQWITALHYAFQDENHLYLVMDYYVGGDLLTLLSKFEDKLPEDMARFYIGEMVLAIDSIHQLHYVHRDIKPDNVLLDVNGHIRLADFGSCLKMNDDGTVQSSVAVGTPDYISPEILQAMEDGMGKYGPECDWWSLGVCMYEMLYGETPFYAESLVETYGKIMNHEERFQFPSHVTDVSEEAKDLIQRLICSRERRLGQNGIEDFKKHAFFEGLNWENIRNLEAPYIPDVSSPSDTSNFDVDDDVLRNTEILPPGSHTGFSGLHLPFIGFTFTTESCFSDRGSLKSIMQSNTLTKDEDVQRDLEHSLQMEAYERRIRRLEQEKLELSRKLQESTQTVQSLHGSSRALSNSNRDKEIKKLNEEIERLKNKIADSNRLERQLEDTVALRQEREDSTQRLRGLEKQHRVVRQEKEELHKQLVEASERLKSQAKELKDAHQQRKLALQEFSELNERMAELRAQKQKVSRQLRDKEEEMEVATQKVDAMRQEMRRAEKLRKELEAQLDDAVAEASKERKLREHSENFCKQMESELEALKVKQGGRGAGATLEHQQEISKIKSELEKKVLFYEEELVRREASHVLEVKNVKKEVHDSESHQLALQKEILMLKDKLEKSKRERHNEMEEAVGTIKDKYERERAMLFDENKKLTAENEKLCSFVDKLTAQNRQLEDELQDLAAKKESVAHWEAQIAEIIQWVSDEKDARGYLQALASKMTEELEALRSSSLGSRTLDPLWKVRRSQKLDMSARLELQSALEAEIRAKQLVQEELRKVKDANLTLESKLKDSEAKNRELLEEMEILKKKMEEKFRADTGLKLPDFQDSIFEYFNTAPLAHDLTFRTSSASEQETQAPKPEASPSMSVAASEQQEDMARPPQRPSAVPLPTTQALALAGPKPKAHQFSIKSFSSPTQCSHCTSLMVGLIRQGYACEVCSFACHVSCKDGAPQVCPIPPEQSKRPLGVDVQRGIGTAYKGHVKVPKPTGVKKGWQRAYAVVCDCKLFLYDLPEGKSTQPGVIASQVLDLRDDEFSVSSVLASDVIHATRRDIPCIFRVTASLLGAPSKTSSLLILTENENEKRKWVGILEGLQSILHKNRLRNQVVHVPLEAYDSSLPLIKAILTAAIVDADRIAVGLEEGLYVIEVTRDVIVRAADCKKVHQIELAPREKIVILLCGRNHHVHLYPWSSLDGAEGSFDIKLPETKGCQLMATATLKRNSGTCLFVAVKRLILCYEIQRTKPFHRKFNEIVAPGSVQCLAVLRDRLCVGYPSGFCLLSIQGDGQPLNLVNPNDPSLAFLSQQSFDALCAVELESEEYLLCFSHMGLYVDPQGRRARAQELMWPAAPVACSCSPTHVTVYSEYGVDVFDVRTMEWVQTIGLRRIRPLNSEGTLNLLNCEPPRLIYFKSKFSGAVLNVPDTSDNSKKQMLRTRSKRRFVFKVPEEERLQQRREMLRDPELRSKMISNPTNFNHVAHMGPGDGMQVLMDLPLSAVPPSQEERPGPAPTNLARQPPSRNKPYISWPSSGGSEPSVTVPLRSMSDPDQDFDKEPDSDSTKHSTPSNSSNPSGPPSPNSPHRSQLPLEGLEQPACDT

[11] = target: RSK4 Kin.Dom.2-C-terminal (Homo sapiens, UniProt Q9UK32); assay: KINOMEscan binding assay; settings: read-out: % Ctrl @ 10000 nM
Sequence of RSK4 Kin.Dom.2-C-terminal (Q9UK32 426-683 limits assumed): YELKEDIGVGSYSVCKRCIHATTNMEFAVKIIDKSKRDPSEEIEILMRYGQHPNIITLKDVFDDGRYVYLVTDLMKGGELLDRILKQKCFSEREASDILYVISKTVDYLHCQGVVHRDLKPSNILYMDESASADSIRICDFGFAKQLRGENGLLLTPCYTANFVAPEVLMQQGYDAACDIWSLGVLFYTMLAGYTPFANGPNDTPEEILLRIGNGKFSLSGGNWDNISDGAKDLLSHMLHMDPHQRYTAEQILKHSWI

[12] = target: ALK (C1156Y) (Homo sapiens, UniProt Q9UM73, C1156Y); assay: KINOMEscan binding assay; settings: read-out: % Ctrl @ 10000 nM
[13] = target: RET (M918T) (Homo sapiens, UniProt P07949, M918T); assay: KINOMEscan binding assay; settings: read-out: % Ctrl @ 10000 nM
[14] = target: ABL1 (T315I) non-phosphorylated (Homo sapiens, UniProt P00519, T315I); assay: KINOMEscan binding assay; settings: read-out: % Ctrl @ 10000 nM
[15] = target: PKAC-beta (Homo sapiens, UniProt P22694); assay: KINOMEscan binding assay; settings: read-out: % Ctrl @ 10000 nM
[16] = target: ACVR1B (Homo sapiens, UniProt P36896); assay: KINOMEscan binding assay; settings: read-out: % Ctrl @ 10000 nM
Sequence of ACVR1B (P36896 24-505): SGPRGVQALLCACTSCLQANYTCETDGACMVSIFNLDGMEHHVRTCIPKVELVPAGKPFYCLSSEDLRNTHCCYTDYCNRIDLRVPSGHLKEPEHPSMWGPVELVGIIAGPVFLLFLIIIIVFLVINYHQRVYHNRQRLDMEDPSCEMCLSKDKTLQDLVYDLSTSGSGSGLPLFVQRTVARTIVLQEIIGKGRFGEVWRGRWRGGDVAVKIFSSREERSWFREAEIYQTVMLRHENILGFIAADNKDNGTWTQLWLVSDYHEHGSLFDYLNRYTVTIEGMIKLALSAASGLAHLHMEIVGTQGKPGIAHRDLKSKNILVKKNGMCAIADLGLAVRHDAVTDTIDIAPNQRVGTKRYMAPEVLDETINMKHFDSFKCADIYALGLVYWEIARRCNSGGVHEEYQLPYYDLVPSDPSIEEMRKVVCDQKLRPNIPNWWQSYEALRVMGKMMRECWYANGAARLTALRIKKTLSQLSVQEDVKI

[17] = target: JNK1 (Homo sapiens, UniProt P45983); assay: KINOMEscan binding assay; settings: read-out: % Ctrl @ 10000 nM
[18] = target: ROS1 (Homo sapiens, UniProt P08922); assay: KINOMEscan binding assay; settings: read-out: % Ctrl @ 10000 nM
[19] = target: PRKD1 (Homo sapiens, UniProt Q15139); assay: KINOMEscan binding assay; settings: read-out: % Ctrl @ 10000 nM
Sequence of PRKD1 (Q15139 whole entry): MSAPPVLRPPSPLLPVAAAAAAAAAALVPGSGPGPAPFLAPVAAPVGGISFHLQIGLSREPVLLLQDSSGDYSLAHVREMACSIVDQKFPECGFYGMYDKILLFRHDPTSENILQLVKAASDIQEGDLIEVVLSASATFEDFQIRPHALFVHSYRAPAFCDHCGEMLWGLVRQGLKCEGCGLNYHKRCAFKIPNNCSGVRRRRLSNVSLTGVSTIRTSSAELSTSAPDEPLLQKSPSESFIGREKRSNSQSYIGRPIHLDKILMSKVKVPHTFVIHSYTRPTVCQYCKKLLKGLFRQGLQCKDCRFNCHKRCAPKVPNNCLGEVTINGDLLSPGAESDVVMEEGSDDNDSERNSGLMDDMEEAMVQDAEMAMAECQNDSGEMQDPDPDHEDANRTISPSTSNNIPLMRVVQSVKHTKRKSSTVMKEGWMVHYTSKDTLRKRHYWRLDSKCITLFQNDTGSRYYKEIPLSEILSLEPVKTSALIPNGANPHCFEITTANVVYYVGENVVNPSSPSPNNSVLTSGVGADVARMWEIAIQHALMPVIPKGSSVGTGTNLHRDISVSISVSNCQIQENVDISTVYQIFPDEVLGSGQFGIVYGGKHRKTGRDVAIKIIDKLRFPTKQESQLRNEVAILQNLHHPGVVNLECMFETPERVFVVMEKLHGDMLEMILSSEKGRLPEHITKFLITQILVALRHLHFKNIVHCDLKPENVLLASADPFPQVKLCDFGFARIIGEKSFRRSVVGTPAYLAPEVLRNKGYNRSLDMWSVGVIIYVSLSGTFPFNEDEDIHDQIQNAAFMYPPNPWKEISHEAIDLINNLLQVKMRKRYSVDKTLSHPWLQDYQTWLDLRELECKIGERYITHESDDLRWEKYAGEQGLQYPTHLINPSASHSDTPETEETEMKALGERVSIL

[20] = target: MLCK (Homo sapiens, UniProt Q32MK0); assay: KINOMEscan binding assay; settings: read-out: % Ctrl @ 10000 nM
[21] = target: RET (V804M) (Homo sapiens, UniProt P07949, V804M); assay: KINOMEscan binding assay; settings: read-out: % Ctrl @ 10000 nM
[22] = target: AURKC (Homo sapiens, UniProt Q9UQB9); assay: KINOMEscan binding assay; settings: read-out: % Ctrl @ 10000 nM
Sequence of AURKC (Q9UQB9 whole entry): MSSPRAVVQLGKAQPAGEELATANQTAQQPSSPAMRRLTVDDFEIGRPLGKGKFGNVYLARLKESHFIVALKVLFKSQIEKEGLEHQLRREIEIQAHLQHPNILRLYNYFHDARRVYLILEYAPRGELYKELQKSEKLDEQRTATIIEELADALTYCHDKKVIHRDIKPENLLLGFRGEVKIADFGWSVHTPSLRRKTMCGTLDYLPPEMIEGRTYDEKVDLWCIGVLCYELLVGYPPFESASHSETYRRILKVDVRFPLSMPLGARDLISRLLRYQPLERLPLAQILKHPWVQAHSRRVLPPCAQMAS

[23] = target: MYO3B (Homo sapiens, UniProt Q8WXR4); assay: KINOMEscan binding assay; settings: read-out: % Ctrl @ 10000 nM
[24] = target: SGK3 (Homo sapiens, UniProt Q96BR1); assay: KINOMEscan binding assay; settings: read-out: % Ctrl @ 10000 nM
Sequence of SGK3 (Q96BR1 whole entry): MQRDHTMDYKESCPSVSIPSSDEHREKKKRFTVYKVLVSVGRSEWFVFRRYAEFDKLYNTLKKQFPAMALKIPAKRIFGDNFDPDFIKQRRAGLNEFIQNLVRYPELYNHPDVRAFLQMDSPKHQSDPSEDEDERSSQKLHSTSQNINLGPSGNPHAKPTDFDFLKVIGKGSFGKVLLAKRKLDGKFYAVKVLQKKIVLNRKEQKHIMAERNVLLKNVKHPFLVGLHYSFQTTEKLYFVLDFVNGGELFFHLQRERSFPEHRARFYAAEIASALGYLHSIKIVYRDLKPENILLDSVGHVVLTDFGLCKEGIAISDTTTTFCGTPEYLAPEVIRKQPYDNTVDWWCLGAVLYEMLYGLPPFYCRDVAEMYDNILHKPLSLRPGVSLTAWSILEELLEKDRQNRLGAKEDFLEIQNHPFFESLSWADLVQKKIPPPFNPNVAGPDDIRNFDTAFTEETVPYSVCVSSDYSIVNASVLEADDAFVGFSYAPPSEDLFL

[25] = target: FGFR3 (G697C) (Homo sapiens, UniProt P22607, G697C); assay: KINOMEscan binding assay; settings: read-out: % Ctrl @ 10000 nM
[26] = target: HPK1 (Homo sapiens, UniProt Q92918); assay: KINOMEscan binding assay; settings: read-out: % Ctrl @ 10000 nM
[27] = target: PIK3CA (C420R) (Homo sapiens, UniProt P42336, C420R); assay: KINOMEscan binding assay; settings: read-out: % Ctrl @ 10000 nM
[28] = target: AURKB (Homo sapiens, UniProt Q96GD4); assay: KINOMEscan binding assay; settings: read-out: % Ctrl @ 10000 nM
[29] = target: ERK3 (Homo sapiens, UniProt Q16659); assay: KINOMEscan binding assay; settings: read-out: % Ctrl @ 10000 nM
[30] = target: PIK4CB (Homo sapiens, UniProt Q9UBF8); assay: KINOMEscan binding assay; settings: read-out: % Ctrl @ 10000 nM
[31] = target: CSNK2A2 (Homo sapiens, UniProt P19784); assay: KINOMEscan binding assay; settings: read-out: % Ctrl @ 10000 nM
[32] = target: CASK (Homo sapiens, UniProt O14936); assay: KINOMEscan binding assay; settings: read-out: % Ctrl @ 10000 nM
[33] = target: PLK4 (Homo sapiens, UniProt O00444); assay: KINOMEscan binding assay; settings: read-out: % Ctrl @ 10000 nM
[34] = target: FLT4 (Homo sapiens, UniProt P35916); assay: KINOMEscan binding assay; settings: read-out: % Ctrl @ 10000 nM
[35] = Cell membrane permeability AC50
[36] = Mitochondrial membrane potential AC50

Sequence of ANKK1 (Q8NFD2 whole entry): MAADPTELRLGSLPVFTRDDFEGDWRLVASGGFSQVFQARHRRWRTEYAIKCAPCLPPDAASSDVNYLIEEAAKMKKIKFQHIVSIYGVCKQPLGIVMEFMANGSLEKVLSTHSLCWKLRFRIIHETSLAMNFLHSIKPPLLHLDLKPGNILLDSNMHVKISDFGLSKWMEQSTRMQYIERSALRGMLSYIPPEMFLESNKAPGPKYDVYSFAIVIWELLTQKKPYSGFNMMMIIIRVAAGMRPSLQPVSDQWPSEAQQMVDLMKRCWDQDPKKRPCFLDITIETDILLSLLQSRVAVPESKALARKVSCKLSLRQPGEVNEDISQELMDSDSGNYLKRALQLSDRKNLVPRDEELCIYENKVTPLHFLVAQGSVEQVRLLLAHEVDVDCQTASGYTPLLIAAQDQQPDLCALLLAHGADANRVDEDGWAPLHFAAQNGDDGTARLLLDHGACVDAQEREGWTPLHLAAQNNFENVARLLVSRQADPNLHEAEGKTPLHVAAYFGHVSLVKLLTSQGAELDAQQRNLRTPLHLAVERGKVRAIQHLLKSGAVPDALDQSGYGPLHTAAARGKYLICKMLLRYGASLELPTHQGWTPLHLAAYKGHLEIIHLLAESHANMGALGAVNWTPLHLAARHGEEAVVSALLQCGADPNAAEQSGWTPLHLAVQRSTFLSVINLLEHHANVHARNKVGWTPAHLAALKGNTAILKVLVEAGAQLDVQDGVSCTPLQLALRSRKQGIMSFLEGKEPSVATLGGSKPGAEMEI

Compound `Nc1ncc(-c2nc3ccccc3o2)c(-c2ccncc2)n1` [Comparative Compound 324, 5-(1,3-benzoxazol-2-yl)-4-(pyridine-4-yl)pyrimidin-2-amine] has a remaining binding at 10 µM [1] of 71%, a remaining binding at 10 µM [2] of 83% and a remaining binding at 10 µM [3] of 85%. The remaining binding at 10 µM [4] was 100%, the remaining binding at 10 µM [5] was 82% and the remaining binding at 10 µM [6] was 44%. For the same compound, the “Cell membrane permeability MEC” value [7] was “(11.1↑) μM”, the “Cytochrome c MEC” value [7] was “(22.2↑) μM” and the “DNA structure MEC” value [7] was “(7.33↑) μM”. The “Mitochondrial mass MEC” value [7] was “(16.8↓) μM”, the “Mitochondrial membrane potential MEC” value [7] was “(17.2↑) μM” and the AC50 at 72 h ([8]; Cell Count AC50) was over 100 µM. For the same compound, the AC50 at 72 h [8, 35] was over 100 µM, the AC50 at 72 h ([8]; Cytochrome c AC50) was 82 µM and the AC50 at 72 h ([8]; DNA structure AC50) was over 100 µM. For the same compound, the AC50 at 72 h ([8]; Mitochondrial mass AC50) was over 100 µM, the AC50 at 72 h [8, 36] was over 100 µM and the AC50 at 72 h ([8]; Nuclear size AC50) was over 100 µM. For the same compound, the remaining binding at 10 µM [9] was 72%, the remaining binding at 10 µM [10] was 100% and the remaining binding at 10 µM [11] was 35%. The remaining binding at 10 µM [12] was 100%, the remaining binding at 10 µM [13] was 88% and the remaining binding at 10 µM [14] was 96%. It also gave a remaining binding at 10 µM [15] of 95%, a remaining binding at 10 µM [16] of 100% and a remaining binding at 10 µM [17] of 52%. For the same compound, the remaining binding at 10 µM [18] was 100%, the remaining binding at 10 µM [19] was 100% and the remaining binding at 10 µM [20] was 94%. For the same compound, the remaining binding at 10 µM [21] was 100%, the remaining binding at 10 µM [22] was 100% and the remaining binding at 10 µM [23] was 100%. It also gave a remaining binding at 10 µM [24] of 94%, a remaining binding at 10 µM [25] of 76% and a remaining binding at 10 µM [26] of 86%. For the same compound, the remaining binding at 10 µM [27] was 99%, the remaining binding at 10 µM [28] was 96% and the remaining binding at 10 µM [29] was 100%. The remaining binding at 10 µM [30] was 96%, the remaining binding at 10 µM [31] was 79% and the remaining binding at 10 µM [32] was 78%. The remaining binding at 10 µM [33] was 69% and the remaining binding at 10 µM [34] was 79%.
In the case of `CNc1c(C(N)=O)c2ccccn2c1C(=O)c1ccc(F)cc1` [Compound A, 2-methyl-amino-3-[(4-fluorophenyl)carbonyl]indolizine-1-carboxamide], the remaining binding at 10 µM [1] was 68%, the remaining binding at 10 µM [2] was 83% and the remaining binding at 10 µM [3] was 64%. It also gave a remaining binding at 10 µM [4] of 85%, a remaining binding at 10 µM [5] of 72% and a remaining binding at 10 µM [6] of 23%. The “Cell Count MEC” value [7] was 2.75↓ μM, the “Cell membrane permeability MEC” value [7] was 1.26↑ μM and the “DNA structure MEC” value [7] was 15.1↑ μM. For the same compound, the “Mitochondrial mass MEC” value [7] was 1.34↑ μM, the “Mitochondrial membrane potential MEC” value [7] was 3.31↓ μM and the “Nuclear size MEC” value [7] was 2.44↑ μM. The AC50 at 72 h ([8]; Cell Count AC50) was 7.88 µM, the AC50 at 72 h [8, 35] was over 40 µM and the AC50 at 72 h ([8]; Cytochrome c AC50) was over 100 µM. The AC50 at 72 h ([8]; DNA structure AC50) was over 100 µM, the AC50 at 72 h ([8]; Mitochondrial mass AC50) was over 40 µM and the AC50 at 72 h [8, 36] was 43.4 µM. For the same compound, the AC50 at 72 h ([8]; Nuclear size AC50) was 12.3 µM, the remaining binding at 10 µM [9] was 80% and the remaining binding at 10 µM [10] was 100%. It also gave a remaining binding at 10 µM [11] of 6.6%, a remaining binding at 10 µM [12] of 98% and a remaining binding at 10 µM [13] of 56%. It also gave a remaining binding at 10 µM [14] of 89%, a remaining binding at 10 µM [15] of 63% and a remaining binding at 10 µM [16] of 100%. It also gave a remaining binding at 10 µM [17] of 45%, a remaining binding at 10 µM [18] of 100% and a remaining binding at 10 µM [19] of 100%. It also gave a remaining binding at 10 µM [20] of 53%, a remaining binding at 10 µM [21] of 100% and a remaining binding at 10 µM [22] of 100%. It also gave a remaining binding at 10 µM [23] of 100%, a remaining binding at 10 µM [24] of 98% and a remaining binding at 10 µM [25] of 71%. The remaining binding at 10 µM [26] was 82%, the remaining binding at 10 µM [27] was 94% and the remaining binding at 10 µM [28] was 86%. For the same compound, the remaining binding at 10 µM [29] was 88%, the remaining binding at 10 µM [30] was 90% and the remaining binding at 10 µM [31] was 93%. The remaining binding at 10 µM [32] was 77%, the remaining binding at 10 µM [33] was 70% and the remaining binding at 10 µM [34] was 62%.
